Reference: US10913738B2 (BRISTOL-MYERS SQUIBB COMPANY, priority 2017, dated 2021)

Tested on: MLKL phosphorylation in HT29-L23 human colorectal adenocarcinoma cells
Assay: MLKL Phosphorylation High-Content Assay
Format: cell-based
Settings: Homo sapiens, x marks IC50 class 20-200 nM, read-out: pMLKL cell activity 20-200 nM
Procedure: MLKL Phosphorylation High-Content Assay
Following six hours incubation at 37° C. […] MLKL phosporylation was detected using anti-MLKL (phospho S358) antibody (Abcam #ab187091) (1:1000 dilution in Blocking Buffer [PBS supplemented with 0.1% BSA]) with overnight incubation at 4° C. […] Following another three cycles of washes in PBS, the microplates were sealed, and cellular images were acquired in the Cellomics ArrayScan VTI high-content imager equipped with an X1 camera. […] The image sets were analyzed using the Compartmental Analysis Bioapplication software (Cellomics). The level of MLKL phosphorylation was quantified as MEAN CircRingAvgIntenRatio. […] The data were fitted using the 4-parameter logistic equation to calculate the IC50 and Ymax values.

**Q.** With `COc1ncc(-c2ccn3nc(N)nc3c2)cc1C(=O)NC(C)CCc1ccccc1` (centres unmarked) [Example 101, 5-{2-amino-[1,2,4]triazolo[1,5-a]pyridin-7-yl}-2-methoxy-N-(4-phenylbutan-2-yl)pyridine-3-carboxamide] as the compound, how does the IC50 read?
**A.** 20 to 200 nM

**Q.** For `Nc1nc2cc(-c3cnc(Cl)c(C(=O)NCc4cc(C(F)(F)F)ccc4F)c3)ccn2n1` [Example 170, 5-{2-amino-[1,2,4]triazolo[1,5-a]pyridin-7-y1}-2-chloro-N-{[2-fluoro-5-(trifluoromethyl)phenyl]methyl}pyridine-3-carboxamide], which IC50 is on record?
**A.** 20 to 200 nM

**Q.** For `Cc1nc(C)c(-c2ccn3nc(N)nc3c2)cc1C(=O)NCc1cc(F)cc(F)c1O[C@H]1CCOC1` [Example 295, (S)-5-(2-amino-[1,2,4]triazolo[1,5-a]pyridin-7-yl)-N-(3,5-difluoro-2-((tetrahydrofuran-3-yl)oxy)benzyl)-2,6-dimethylnicotinamide], which IC50 is on record?
**A.** 20 to 200 nM

**Q.** For `Cc1ncc(-c2ccn3nc(N)nc3c2)cc1C(=O)Nc1cn(Cc2ccccc2)cn1` [Example 319, 5-(2-amino-[1,2,4]triazolo[1,5-a]pyridin-7-yl)-N-(1-benzyl-1H-imidazol-4-yl)-2-methylnicotinamide], which IC50 is on record?
**A.** 20 to 200 nM

Same assay, conditions: Homo sapiens, x marks IC50 class <20 nM, read-out: pMLKL cell activity <20 nM

**Q.** Which IC50 does the source give for `Nc1nc2cc(-c3cnc(Cl)c(C(=O)Nc4cnn(Cc5ccccc5)c4)c3)ccn2n1` [Example 83, 5-{2-Amino-[1,2,4]triazolo[1,5-a]pyridin-7-yl}-N-(1-benzyl-1H-pyrazol-4-yl)-2-chloropyridine-3-carboxamide] here?
**A.** < 20 nM

**Q.** `COc1ncc(-c2ccn3nc(N)nc3c2)cc1C(=O)NCCC(C)c1ccccc1` (centres unmarked) [Example 85, 5-{2-Amino-[1,2,4]triazolo[1,5-a]pyridin-7-yl}-2-methoxy-N-(3-phenylbutyl)pyridine-3-carboxamide] was tested. Which IC50 did it give?
**A.** < 20 nM

**Q.** For `COc1ncc(-c2ccn3nc(N)nc3c2)cc1C(=O)NCC(C)Cc1ccccc1` (centres unmarked) [Example 113, 5-{2-amino-[1,2,4]triazolo[1,5-a]pyridin-7-yl}-2-methoxy-N-(2-methyl-3-phenylpropyl)pyridine-3-carboxamide], which IC50 is on record?
**A.** < 20 nM

Same assay, conditions: Homo sapiens, x marks IC50 class >200 nM, read-out: pMLKL cell activity >200 nM

**Q.** `COc1ncc(-c2ccn3nc(N)nc3c2)cc1C(=O)NCCC(O)c1ccc(F)cc1` (single isomer, unassigned) [Example 71-2, 5-(2-Amino-[1,2,4]triazolo[1,5-a]pyridin-7-yl)-N-(3-(4-fluorophenyl)-3-hydroxypropyl)-2-methoxynicotinamide] was tested. Which IC50 did it give?
**A.** > 200 nM

**Q.** How did the IC50 turn out when `COc1ncc(-c2ccn3nc(N)nc3c2)cc1C(=O)NC[C@H]1C[C@@H]1c1ccc(F)cc1` [Example 112, 5-{2-amino-[1,2,4]triazolo[1,5-a]pyridin-7-yl}-N-{[(1S,2S)-2-(4-fluorophenyl)cyclopropyl]methyl}-2-methoxypyridine-3-carboxamide] was run?
**A.** > 200 nM

Target: T1, His-GST-TVMV-hRIPK1(1-324) (Homo sapiens, UniProt Q13546)
T1 construct: The coding region of human RIPK1(1-324) flanked by NdeI site at 5′ end; made in house; host or cells: Spodoptera frugiperda (Sf9) insect cells, baculovirus
T1 sequence (Q13546 1-324): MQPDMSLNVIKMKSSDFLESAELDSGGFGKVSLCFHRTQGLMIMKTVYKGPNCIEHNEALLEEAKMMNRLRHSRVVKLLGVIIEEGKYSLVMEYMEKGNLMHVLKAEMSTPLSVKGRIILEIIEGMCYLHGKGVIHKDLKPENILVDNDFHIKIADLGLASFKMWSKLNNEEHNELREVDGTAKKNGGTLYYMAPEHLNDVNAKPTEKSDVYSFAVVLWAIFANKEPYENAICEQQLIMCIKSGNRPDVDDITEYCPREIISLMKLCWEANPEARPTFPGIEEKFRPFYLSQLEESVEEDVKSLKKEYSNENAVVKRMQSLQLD
Assay: RIPK1 HTRF Binding Assay
Settings: x marks IC50 class 20-200 nM; read-out: RIPK1 HTRF binding 20-200 nM
Procedure: The plate was incubated at rt for 1 h.
Cloning and Baculovirus Expression of RIPK1 Construct
Baculovirus was generated for the construct using the Bac-to-Bac baculovirus expression system (Invitrogen) according to the manufacturer's protocol. Briefly, recombinant bacmid was isolated from transformed DH10Bac E. coli competent cells (Invitrogen) and used to transfect Spodoptera frugiperda (Sf9) insect cells (Invitrogen). Baculovirus was harvested 72 hours post transfection and a virus stock was prepared by infecting fresh Sf9 cells at a 1/1000 (v/v) ratio for 66 hours.
The production was carried out either at a 10 L scale in a 22 L cellbag (GE Healthcare Bioscience, Pittsburgh, Pa.) or at a 20 L scale in a 50 L cellbag using WAVE-Bioreactor System 20/50 (GE Healthcare Bioscience). The infected cells were harvested by centrifugation at 2000 rpm for 20 min at 4° C. in a SORVALL® RC12BP centrifuge. The cell pellets was stored at −70° C. before protein was purified.
RIPK1 containing cell paste was resuspended in 50 mM Tris pH 7.5, 150 mM NaCl, 10 mM imidazole, 5% glycerol, 5 mM MgSO4, 1 mM TCEP, 25 U/ml Benzonase, and Complete Protease Inhibitor tablets (1/50 ml, Roche Diagnostics, Indianapolis, Ind.). […] The suspension was clarified by centrifugation at 136,000×g for 40 min, at 4° C. The lysate was decanted from the pellet and passed through a 5 ml NiNTA Superflow cartridge (Qiagen, Valencia, Calif.) using an AKTA Pure (GE Healthcare). Column was eluted with 10 CV linear gradient into 50 mM Tris 7.5, 150 mM NaCl, 500 mM imidazole, 5% glycerol, 1 mM TCEP. Peak fractions were pooled and loaded directly onto 5 ml GSTrap 4B column (GE Healthcare). Column was washed with 50 mM Tris 7.0, 150 mM NaCl, 5% glycerol, 1 mM DTT and eluted in 10 CV linear gradient into 50 mM Tris 8.0, 150 mM NaCl, 20 mM reduced glutathione, 5% glycerol, 1 mM DTT. Fractions identified by SDS-PAGE as containing RIPK1 were pooled and concentrated using 30 kDa MWCO spin concentrators (Amicon Ultra-15, Millipore, Billerica, Mass.) and loaded onto a HiLoad 26/600 Superdex 200 column (GE Healthcare) equilibrated in 25 mM Tris 7.5, 150 mM NaCl, 2 mM TCEP, 5% glycerol.
Protein was aliquoted and stored at −80° C.

**Q.** `COc1ncc(-c2ccn3nc(N)nc3c2)cc1C(=O)NCC[C@H](O)c1ccc(Cl)cc1` [Example 157, 5-{2-amino-[1,2,4]triazolo[1,5-a]pyridin-7-yl}-N-[(3S)-3-(4-chlorophenyl)-3-hydroxypropyl]-2-methoxypyridine-3-carboxamide] was tested. Which IC50 did it give?
**A.** 20 to 200 nM

**Q.** For `Cc1nc(C)c(-c2ccn3nc(N)nc3c2)cc1C(=O)NCC[C@@H](O)c1ccc(Cl)cc1` [Example 178, 5-{2-amino-[1,2,4]triazolo[1,5-a]pyridin-7-yl}-N-[(3R)-3-(4-chlorophenyl)-3-hydroxypropyl]-2,6-dimethylpyridine-3-carboxamide], which IC50 is on record?
**A.** 20 to 200 nM

**Q.** With `COc1nc(C)c(-c2ccn3nc(N)nc3c2)cc1C(=O)NCC[C@H](O)c1ccc(Cl)cc1` [Example 193, 5-{2-amino-[1,2,4]triazolo[1,5-a]pyridin-7-yl}-N-[(3S)-3-(4-chlorophenyl)-3-hydroxypropyl]-2-methoxy-6-methylpyridine-3-carboxamide] as the compound, how does the IC50 read?
**A.** 20 to 200 nM

Same assay, conditions: x marks IC50 class <20 nM; read-out: RIPK1 HTRF binding <20 nM

**Q.** Which IC50 does the source give for “5-(2-amino-[1,2,4]triazolo[1,5-a]pyridin-7-yl)-2-methoxy-N-(2-(pyrrolidine-1-carbonyl)benzyl)nicotinamide [Example 379]” here?
**A.** < 20 nM

**Q.** For “5-(2-amino-[1,2,4]triazolo[1,5-a]pyridin-7-yl)-N-(3,5-difluoro-2-isobutoxybenzyl)-2-methoxynicotinamide [Example 341]”, which IC50 is on record?
**A.** < 20 nM

**Q.** `COc1ncc(-c2ccn3nc(N)nc3c2)cc1C(=O)NC(C)c1cc(OC(F)(F)F)ccc1F` (single isomer, unassigned) [Example 89-2, 5-{2-amino-[1,2,4]triazolo[1,5-a]pyridin-7-yl}-N-{1-[2-fluoro-5-(trifluoromethoxy)phenyl]ethyl}-2-methoxypyridine-3-carboxamide] was tested. Which IC50 did it give?
**A.** < 20 nM

**Q.** Which IC50 does the source give for `[2H]C([2H])([2H])Oc1nc(C)c(-c2ccn3nc(N)nc3c2)cc1C(=O)NC(C)c1cc(OC(F)(F)F)ccc1F` (single isomer, unassigned) [Example 97-2, 5-{2-amino-[1,2,4]triazolo[1,5-a]pyridin-7-yl}-N-{1-[2-fluoro-5-(trifluoromethoxy)phenyl]ethyl}-2-(deutero)methoxy-6-methylpyridine-3-carboxamide] here?
**A.** < 20 nM

**Q.** Which IC50 does the source give for `Cc1ncc(-c2ccn3nc(N)nc3c2)cc1C(=O)NC(C)c1cc(C(F)(F)F)ccc1F` (single isomer, unassigned) [Example 99-2, 5-{2-amino-[1,2,4]triazolo[1,5-a]pyridin-7-yl}-N-{1-[2-fluoro-5-(trifluoromethyl)phenyl]ethyl}-2-methylpyridine-3-carboxamide] here?
**A.** < 20 nM

**Q.** Which IC50 does the source give for `Cc1ncc(-c2ccn3nc(N)nc3c2)cc1C(=O)NCCC(C)c1ccccc1` (centres unmarked) [Example 82, 5-{2-Amino-[1,2,4]triazolo[1,5-a]pyridin-7-yl}-2-methyl-N-(3-phenylbutyl)pyridine-3-carboxamide] here?
**A.** < 20 nM

**Q.** For `Cc1nc(C)c(-c2ccn3nc(N)nc3c2)cc1C(=O)NCC[C@H](O)c1ccc(Cl)cc1` [Example 179, 5-{2-amino-[1,2,4]triazolo[1,5-a]pyridin-7-yl}-N-[(3S)-3-(4-chlorophenyl)-3-hydroxypropyl]-2,6-dimethylpyridine-3-carboxamide], which IC50 is on record?
**A.** < 20 nM

**Q.** How did the IC50 turn out when “(R)-2-(2-amino-[1,2,4]triazolo[1,5-a]pyridin-7-yl)-N-(1-(2-fluoro-5-(trifluoromethyl)phenyl)ethyl)-5-methylisonicotinamide [Example 396]” was run?
**A.** < 20 nM

**Q.** Which IC50 does the source give for “(R)-5-(2-amino-[1,2,4]triazolo[1,5-a]pyridin-7-yl)-N-(1-(2-fluoro-5-(trifluoromethoxy)phenyl)ethyl-2,2,2-d3)-2-methoxynicotinamide [Example 345]” here?
**A.** < 20 nM

**Q.** With “(S)-2-(2-amino-[1,2,4]triazolo[1,5-a]pyridin-7-yl)-N-(3-(4-chlorophenyl)-3-hydroxypropyl)-5-methylisonicotinamide [Example 397]” as the compound, how does the IC50 read?
**A.** < 20 nM

Same assay, conditions: x marks IC50 class >200 nM; read-out: RIPK1 HTRF binding >200 nM

**Q.** For `COc1ncc(-c2ccn3nc(N)nc3c2)cc1C(=O)NCCC(O)c1ccc(Cl)cn1` (centres unmarked) [Example 75, 5-{2-Amino-[1,2,4]triazolo[1,5-a]pyridin-7-yl}-N-[3-(5-chloropyridin-2-yl)-3-hydroxypropyl]-2-methoxypyridine-3-carboxamide], which IC50 is on record?
**A.** > 200 nM
